Laboratory results published in PubChem BioAssay AID652066 (The Scripps Research Institute Molecular Screening Center, 2013).

Target: Nuclear receptor coactivator 3 (Homo sapiens) (UniProt Q9Y6Q9)
Assay: reduction of cellular SRC-3 protein level, late-stage follow-up, mechanism study for SRC-3 inhibitor probe project, cell-based, MCF-7, Western blot, powder samples (AID 652066)
Conditions: MCF-7 SRC-3 protein level, 24 h

Chain of Nuclear receptor coactivator 3 (Homo sapiens) (Q9Y6Q9 whole entry, looked up): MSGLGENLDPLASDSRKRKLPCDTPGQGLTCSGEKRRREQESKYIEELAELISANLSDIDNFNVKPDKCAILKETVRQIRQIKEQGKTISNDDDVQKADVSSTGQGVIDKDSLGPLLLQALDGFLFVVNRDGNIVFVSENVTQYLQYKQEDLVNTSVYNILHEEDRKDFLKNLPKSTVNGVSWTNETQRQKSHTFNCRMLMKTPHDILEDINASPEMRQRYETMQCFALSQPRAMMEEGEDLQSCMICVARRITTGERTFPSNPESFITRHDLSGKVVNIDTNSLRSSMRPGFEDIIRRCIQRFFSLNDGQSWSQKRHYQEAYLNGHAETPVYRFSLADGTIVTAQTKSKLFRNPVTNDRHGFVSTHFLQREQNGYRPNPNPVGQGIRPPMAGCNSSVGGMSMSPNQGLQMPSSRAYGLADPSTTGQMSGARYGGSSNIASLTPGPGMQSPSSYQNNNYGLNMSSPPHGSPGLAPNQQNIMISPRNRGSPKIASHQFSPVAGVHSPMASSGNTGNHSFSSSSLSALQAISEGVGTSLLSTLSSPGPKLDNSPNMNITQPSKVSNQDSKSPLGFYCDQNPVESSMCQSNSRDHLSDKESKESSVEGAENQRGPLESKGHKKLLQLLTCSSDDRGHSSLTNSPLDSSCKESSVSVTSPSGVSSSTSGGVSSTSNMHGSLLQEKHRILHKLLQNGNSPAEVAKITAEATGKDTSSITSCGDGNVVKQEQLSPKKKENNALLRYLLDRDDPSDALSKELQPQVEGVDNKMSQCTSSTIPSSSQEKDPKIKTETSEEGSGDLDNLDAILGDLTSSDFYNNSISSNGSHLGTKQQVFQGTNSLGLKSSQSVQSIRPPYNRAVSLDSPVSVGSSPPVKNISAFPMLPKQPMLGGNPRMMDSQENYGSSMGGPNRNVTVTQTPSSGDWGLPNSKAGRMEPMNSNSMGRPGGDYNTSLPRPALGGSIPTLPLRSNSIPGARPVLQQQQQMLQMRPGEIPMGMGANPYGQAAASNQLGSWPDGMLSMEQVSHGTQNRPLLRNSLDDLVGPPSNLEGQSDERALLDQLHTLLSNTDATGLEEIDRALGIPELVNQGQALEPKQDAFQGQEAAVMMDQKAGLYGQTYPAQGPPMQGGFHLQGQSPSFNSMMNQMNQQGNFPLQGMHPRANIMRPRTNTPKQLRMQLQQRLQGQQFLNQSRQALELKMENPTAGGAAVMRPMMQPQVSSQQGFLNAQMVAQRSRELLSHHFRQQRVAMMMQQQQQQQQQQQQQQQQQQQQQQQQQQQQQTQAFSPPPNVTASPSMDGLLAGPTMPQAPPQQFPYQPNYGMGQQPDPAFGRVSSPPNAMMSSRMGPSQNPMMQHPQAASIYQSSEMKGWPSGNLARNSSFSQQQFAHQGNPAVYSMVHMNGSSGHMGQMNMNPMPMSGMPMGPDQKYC

| SMILES | IC50 [µM] |
| --- | --- |
| NC(=O)c1sc2nc3c(c(-c4ccco4)c2c1N)CCC3 | < 2 |
| O=C(CCl)N1N=C(c2ccco2)CC1c1cccs1 (stereo unspecified) | < 0.4 |
| COc1cc2c(cc1OC)C(NC(=O)C(F)(F)F)CNC2=O (stereo unspecified) | < 2 |
| O=C(CCl)N1N=C(c2ccco2)CC1c1ccco1 (stereo unspecified) | < 2 |
| COc1cc(C2c3cc4c(cc3C(OC3OC5COC(c6cccs6)OC5C(O)C3O)C3COC(=O)C23)OCO4)cc(OC)c1O (stereo unspecified) | < 0.4 |
| O=C(Nc1nc(-c2ccccn2)cs1)c1cccc(S(=O)(=O)N2CCOCC2)c1 | < 2 |
